Laboratory results reported in patent publication US12617762B2, “Carboxy derivatives with antiinflamatory properties” (Sitryx Therapeutics Limited, priority 2019, dated 2026).
Like-named read-outs stand apart in the source and are kept apart here.

Columns and labels:
[1] = Hepatocyte stability assay, mouse; type: in vitro ADME; settings: mouse, hepatocytes; for hepatocyte CLint at 10 μM: Hepatocyte stability Clint; for half-life at 10 μM: Hepatocyte stability T½
Outline: (§1)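 Metabolic stability was measured as depletion of 10 μM compound in thawed hepatocytes (0.5×10^6 cells/mL, 37° C, up to 60 min). Intrinsic clearance came from the slope of log-transformed percentage remaining.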

[2] = tested on: IL-1β cytokine output from THP-1s; assay: THP-1 AlphaLISA IL-1β cytokine inhibition assay; type: cell-based; settings: for IC50: Homo sapiens, THP-1, differentiated THP-1 cells, LPS then nigericin; for IL-1β lowering, result in words: THP-1 IL-1β assay
Outline: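 IL-1β release by AlphaLISA, expressed as % inhibition against +/− LPS controls on each plate. Differentiation: PMA, 72 h. Sequence: 30 min compound pre-treatment, LPS 24 h, Nigericin 1 h before supernatant harvest, all at 37° C./5% CO2.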

[3] = Hepatocyte stability assay, human; type: in vitro ADME; settings: human, hepatocytes; for hepatocyte CLint at 10 μM: Hepatocyte stability Clint; for half-life at 10 μM: Hepatocyte stability T½
Outline: as §1

[4] = tested on: NRF2 (nuclear factor erythroid 2-related factor 2); assay: NRF2 +/-GSH activation assay (DiscoverX PathHunter NRF2 translocation kit, U2OS cells); type: cell-based; settings: for NRF2 activation +GSH Emax / NRF2 activation −GSH Emax: normalised to DMF high control
Outline: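 Activation is expressed as percent of plate DMF (high) versus no-DMF (low) controls, from luminescence after 6 h compound exposure at 37 °C of U2OS PathHunter cells. The +GSH condition used compound pre-incubated 30 min in 6 mM working GSH; −GSH cells received compound directly.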

[5] = +GSH, 30 minute compound-GSH pre-incubation, read-out: NRF2 activation +GSH EC50
[6] = −GSH, U2OS PathHunter cells, 6 hours compound treatment, read-out: NRF2 activation −GSH EC50

| SMILES | hepatocyte CLint at 10 μM [1] | half-life at 10 μM [1] | IC50 [2] | hepatocyte CLint at 10 μM [3] | half-life at 10 μM [3] | EC50 [4, 5] | NRF2 activation +GSH Emax ([4]; +GSH) | EC50 [4, 6] | NRF2 activation −GSH Emax ([4]; −GSH) | IL-1β lowering, result in words [2] |
| --- | --- | --- | --- | --- | --- | --- | --- | --- | --- | --- |
| C=C(Cc1nc(Cc2ccc(CCCCC)cc2)no1)C(=O)O [Example 28, 2-((3-(4-pentylbenzyl)-1,2,4-oxadiazol-5-yl)methyl)acrylic acid] | > 460 µL/min/1e6 cells | < 3 min | 7.7 µM | 103 µL/min/1e6 cells | 12 min | 4 µM | 201% | 3 µM | 264% | – |
| C=C(Cc1nc(Cc2ccc3ccccc3c2)no1)C(=O)O [Example 9, 2-((3-(naphthalen-2-ylmethyl)-1,2,4-oxadiazol-5-yl)methyl)acrylic acid] | 41 µL/min/1e6 cells | 25 min | 54.7 µM | 7 µL/min/1e6 cells | 181 min | 69.9 µM | 44% | 42.7 µM | 51% | – |
| C=C(Cc1nc(C2CCCCCCC2)no1)C(=O)O [Example 63, 2-((3-cyclooctyl-1,2,4-oxadiazol-5-yl)methyl)acrylic acid] | 23 µL/min/1e6 cells | 60 min | > 100 µM | 8 µL/min/1e6 cells | 169 min | 58 µM | 49% | 25.8 µM | 114% | not effective |
| C=C(Cc1nc(C2(c3ccc(OC(F)(F)F)cc3)CC2)no1)C(=O)O [Example 49, 2-((3-(1-(4-(trifluoromethoxy)phenyl)cyclopropyl)-1,2,4-oxadiazol-5-yl)methyl)acrylic acid] | 15 µL/min/1e6 cells | 86 min | 12.4 µM | 8 µL/min/1e6 cells | 172 min | 57.5 µM | 56% | 49.2 µM | 109% | – |
| C=C(Cc1nc(C2(c3cccc(Cl)c3)CC2)no1)C(=O)O [Example 21, 2-((3-(1-(3-chlorophenyl)cyclopropyl)-1,2,4-oxadiazol-5-yl)methyl)acrylic acid] | 62 µL/min/1e6 cells | 28 min | > 100 µM | 21 µL/min/1e6 cells | 83 min | 44 µM | 81% | 31.7 µM | 125% | not effective |
| C=C(Cc1nc(-c2ccc(OCCCC(F)(F)F)cc2)no1)C(=O)O [Example 146, 2-((3-(4-(4,4,4-trifluorobutoxy)phenyl)-1,2,4-oxadiazol-5-yl)methyl)acrylic acid] | 194 µL/min/1e6 cells | 8 min | > 31.6 µM | 36 µL/min/1e6 cells | 41 min | 14.6 µM | 125% | 13.1 µM | 177% | – |
| C=C(Cc1nc(C2(c3cc(Cl)c(F)c(Cl)c3)CC2)no1)C(=O)O [Example 133, 2-((3-(1-(3,5-dichloro-4-fluorophenyl)cyclopropyl)-1,2,4-oxadiazol-5-yl)methyl)acrylic acid] | 338 µL/min/1e6 cells | 4 min | 1.6 µM | 73 µL/min/1e6 cells | 19 min | 4.2 µM | 281% | 3.5 µM | 234% | – |
| C=C(Cc1nnc(CCCCCCCC)s1)C(=O)O [Example 37, 2-((5-octyl-1,3,4-thiadiazol-2-yl)methyl)acrylic acid] | > 481 µL/min/1e6 cells | < 3 min | 14.6 µM | 32 µL/min/1e6 cells | 40 min | 9.5 µM | 139% | 8.4 µM | 162% | – |
| C=C(Cc1nc(Cc2cc(Cl)cc(Cl)c2)no1)C(=O)O [Example 16, 2-((3-(3,5-dichlorobenzyl)-1,2,4-oxadiazol-5-yl)methyl)acrylic acid] | 29 µL/min/1e6 cells | 45 min | 45.6 µM | < 4 µL/min/1e6 cells | > 362 min | 23.6 µM | 149% | 19.4 µM | 180% | – |
| C=C(Cc1nc(Cc2ccc(C(C)(C)C)cc2)no1)C(=O)O [Example 15, 2-((3-(4-(tert-butyl)benzyl)-1,2,4-oxadiazol-5-yl)methyl)acrylic acid] | 31 µL/min/1e6 cells | 35 min | 23.8 µM | 7.5 µL/min/1e6 cells | 167 min | > 100 µM | 33% | 57.1 µM | 41% | – |
| C=C(Cc1nc(CCc2ccc(CCC)cc2)no1)C(=O)O [Example 36, 2-((3-(4-propylphenethyl)-1,2,4-oxadiazol-5-yl)methyl)acrylic acid] | 249 µL/min/1e6 cells | 7 min | 37.5 µM | 23 µL/min/1e6 cells | 61 min | 14.2 µM | 181% | 10.1 µM | 216% | – |
| C=C(Cc1nc(Cc2ccc(C(F)(F)F)cc2)no1)C(=O)O [Example 42, 2-((3-(4-(trifluoromethyl)benzyl)-1,2,4-oxadiazol-5-yl)methyl)acrylic acid] | 11 µL/min/1e6 cells | 118 min | 27 µM | < 3 µL/min/1e6 cells | > 460 min | > 100 µM | 8% | > 100 µM | 63% | – |
| C=C(Cc1nc(CCCCCCCC(F)(F)F)no1)C(=O)O [Example 11, 2-((3-(8,8,8-trifluorooctyl)-1,2,4-oxadiazol-5-yl)methyl)acrylic acid] | 56 µL/min/1e6 cells | 18 min | 8.2 µM | 30 µL/min/1e6 cells | 42 min | 13.1 µM | 149% | 11.4 µM | 185% | – |
| C=C(Cc1nc(C(F)(F)c2ccc(OC(F)(F)F)cc2)no1)C(=O)O [Example 94, 2-((3-(difluoro(4-(trifluoromethoxy)phenyl)methyl)-1,2,4-oxadiazol-5-yl)methyl)acrylic acid] | 29 µL/min/1e6 cells | 66 min | 20.5 µM | < 3 µL/min/1e6 cells | > 460 min | 13.8 µM | 183% | 7.9 µM | 208% | – |
| C=C(Cc1ccccc1Cl)C(=O)O [2-(2-chlorobenzyl)acrylic acid, reference compound] | 95 µL/min/1e6 cells | – | > 100 µM | 21 µL/min/1e6 cells | – | > 100 µM | 9% | > 100 µM | 2% | – |
| C=C(Cc1nc(CCc2ccc(Cl)cc2)no1)C(=O)O [Example 5, 2-((3-(4-chlorophenethyl)-1,2,4-oxadiazol-5-yl)methyl)acrylic acid] | 48 µL/min/1e6 cells | 40 min | 45.3 µM | 8 µL/min/1e6 cells | 174 min | 50.4 µM | 63% | 42.4 µM | 74% | – |
| C=C(Cc1nc(Cc2ccc(Cl)cc2)no1)C(=O)O [Example 4, 2-((3-(4-chlorobenzyl)-1,2,4-oxadiazol-5-yl)methyl)acrylic acid] | 13 µL/min/1e6 cells | 93 min | 49.3 µM | < 3 µL/min/1e6 cells | > 460 min | > 100 µM | 23% | 40.5 µM | 47% | – |
